What was measured:
[1] = test system: dogs with occult or overt dilated cardiomyopathy (DCM)
Procedure: The clinical study was conducted at two small animal clinics. Overall, nine dogs were screened for eligibility and included. Screening cardiological examination was performed by the cardiologist of the respective study site. […] Diagnosis and staging of DCM was confirmed by an independent cardiologist. […] The remaining five dogs suffered from various other cardiac disorders and were therefore excluded from the study analysis.
According to the owner, general condition and exercise tolerance was poor. […] Case 100-006 was treated until D45 with velagliflozin (oral dose of 0.05 mg/kg bodyweight/day) only. Due to natural progression of the cardiac disease torasemide (diuretic) was added at D45 using a very low dosage (dose 0.08 mg/kg/day—minimal dose recommended by the manufacturer: 0.13 mg/kg bodyweight/day). […] The dog was euthanized subsequently at day 69.
According to the owner general condition and exercise tolerance was poor.
Due to natural progression of the cardiac disease torasemide (diuretic) was added at D45 (dose: 0.48 mg/kg bodyweight/day). […] At D101 the owner reported a worsening of the dog's condition. […] Subsequently, spironolactone was added to the current treatment to enhance diuresis. […] Therefore, case 100-007 did reach end of study at D101. […] Due to fusion of the early and late diastolic transmitral flow at D90 visit the TMF pattern could not be determined.

[2] = test system: Beagle dogs with asymptomatic/preclinical ACVIM stage B2 MMVD; experiment: Exploratory laboratory study in dogs with asymptomatic/preclinical myxomatous mitral valve disease (MMVD); assay type: in vivo, dog
From the text: Echocardiographic findings in dogs with MMVD stage B2 include degenerative valvular changes, increased left atrial dimension (LA/AO-ratio≥1.6), and increased left ventricular end-diastolic dimensions normalized to body weight (LVIDDN≥1.7) (Keene et al., 2019). For evaluation of survival time a severity score (MINE score) based on the echocardiographic variables above, the cardiac contractility (fractional shortening, FS %), and transmitral peak E-wave velocity was initiated (Vezzosi T et al., J Vet Intern Med. 2021, 35(3):1238-1244). The MINE score is associate with the survival time and provides therefore prognostic information.
The objective of this study was to evaluate velagliflozin, a sodium-glucose co-transporter-2 inhibitor, as a treatment for dogs with asymptomatic/preclinical ACVIM stage B2 MMVD. Three Beagle dogs previously diagnosed with this condition by a veterinary cardiologist were included in the study.
Baseline assessments included body weight measurements, veterinary examinations, echocardiographs, urinalysis, blood collections for hematology, biochemistry, BHB, NT-proBNP, cTnI, and erythropoietin analysis as well as radiographs to assess heart size, pulmonary edema, and congestion. On study Day 0, once daily oral administration of velagliflozin (0.05 mg/kg bodyweight) was initiated. Veterinary examinations, urinalysis, and blood collections for analysis of the above-mentioned parameters were repeated on Days 32, 59, and 91. Echocardiographs were repeated on Days 23, 58, and 93. General health observations are conducted twice daily, and body weights measured approximately every 3 weeks.
Additionally, the “The Mitral Insufficiency Echocardiographic” score, a severity classification of myxomatous mitral valve disease (MMVD) in dogs (MINE score) was calculated (Vezzosi et al., 2021). This score as an easy-to-use echocardiographic classification of severity of MMVD based on routinely acquired echocardiographic variables. The hypothesis was that the MINE score is clinically effective since it is associated with median survival time of the animals (see tables 5 and 6 below).

[3] = two dogs with occult DCM (case 100-001 and case 100-004), velagliflozin oral 0.05 mg/kg bodyweight/day only, 180 days
[4] = Azul, Day 58, velagliflozin 0.05 mg/kg bodyweight oral once daily

With N#Cc1ccc([C@@H]2O[C@H](CO)[C@@H](O)[C@H](O)[C@H]2O)cc1Cc1ccc(C2CC2)cc1 [velagliflozin, Velagliflozin] the NT-proBNP ([1]; case 100-007, overt DCM, velagliflozin plus torasemide from D45, End of study (D 101), screening visit 13.2) was 735.26 pmol/L, the cTnI ([1]; case 100-007, overt DCM, velagliflozin plus torasemide from D45, Visit 3 (D 90), screening visit 0.27) was 0.17 ng/mL and the LVIDDN ([1]; case 100-007, overt DCM, velagliflozin plus torasemide from D45, Visit 3 (D 90), screening visit 2.6) was 2.51. It also gave an LA/Ao ([1]; case 100-007, overt DCM, velagliflozin plus torasemide from D45, Visit 3 (D 90), screening visit 2.71) of 2.44, an EPSS ([1]; case 100-007, overt DCM, velagliflozin plus torasemide from D45, Visit 3 (D 90), screening visit 13.7) of 18.9 mm and an FS % ([1]; case 100-007, overt DCM, velagliflozin plus torasemide from D45, Visit 3 (D 90), screening visit 19.3) of 18.45%. For the same compound, the ESVI ([1]; case 100-007, overt DCM, velagliflozin plus torasemide from D45, Visit 3 (D 90), screening visit 167.59) was 157.26 ml/m2, the EDVI ([1]; case 100-007, overt DCM, velagliflozin plus torasemide from D45, Visit 3 (D 90), screening visit 273.4) was 251.37 ml/m2 and the echocardiographic values ([1]; two dogs with occult DCM (case 100-001 and case 100-004), velagliflozin oral 0.05 mg/kg bodyweight/day only till D180) was “did not alter”. The “adverse event during the study period” value [1, 3] was “did not develop an adverse event”, the “blood values (hematology and biochemistry)” value [1, 3] was “remained within normal” and the “survival at the end of the study” value ([1]; two dogs with occult DCM (case 100-001 and case 100-004), velagliflozin oral 0.05 mg/kg bodyweight/day only, D180) was “still alive at the end of the study”. For the same compound, the disease progression ([1]; two dogs with preclinical (occult) DCM treated with velagliflozin) was “no observed disease progression”, the MINE severity classification ([2]; Azul, D93, moderate at baseline) was “severe” and the “LVIDDN reduction from baseline” value [2, 4] was 3.56%. The “decrease from baseline in LA/Ao ratio” value [2, 4] was 17.3%, the “NT-proBNP reduction from baseline” value ([2]; Azul, Day 59, within the reference range) was 76.3% and the “NT-proBNP reduction from baseline” value ([2]; Azul, Day 91) was 45.8%. For the same compound, the “Total MINE score” value ([2]; Azul, Day 93, base line 7 (Moderate), increase due to increase in FS %, might be due to cystitis) was 8 (Increase due to increase in FS %, also showed an, the “LVIDDN change versus baseline” value ([2]; Azul, Day 93, just above baseline) was “+0.81%” and the “LA/Ao ratio below baseline” value ([2]; Azul, Day 93, velagliflozin 0.05 mg/kg bodyweight oral once daily) was 1.08%. For the same compound, the “adverse event in one animal” value ([2]; Azul, during treatment, recovered) was “developed a cystitis”, the “LVIDDN (in words)” value ([2]; Azul, summary) was “no change” and the “LA/AO-ratio (in words)” value ([2]; Azul, summary at D93) was “no change”. The “LVIDDN (in words)” value ([2]; Birdie and Shelby, summary, within day-to-day variability) was “slight decrease (improvement)”, the “LVIDDN reduction from baseline” value ([2]; Birdie, Day 93) was 5.25% and the MINE severity classification ([2]; Birdie, Day 93, Mild at base line) was “Mild (4-5)”. For the same compound, the “Total MINE score” value ([2]; Birdie, Day 93, base line 5 (Mild)) was 5, the “reduction from baseline in LA/Ao ratio” value ([2]; Birdie, Day 93, velagliflozin 0.05 mg/kg bodyweight oral once daily) was 12.73% and the “left atrial size (in words)” value ([2]; Birdie, summary, beyond day-to-day variability) was “normalization of the left atrial size”. For the same compound, the “NT-proBNP reduction from baseline” value ([2]; Shelby, Day 91, still above the reference range) was 45.6%, the “LVIDDN reduction from baseline” value ([2]; Shelby, Day 93) was 3.54% and the MINE severity classification ([2]; Shelby, Day 93, Moderate at base line) was “Moderate (6-7)”. The “Total MINE score” value ([2]; Shelby, Day 93, base line 7 (Moderate), decrease due to improvement in left ventricular diameter) was 6, the “LA/AO-ratio (in words)” value ([2]; Shelby, summary, within day-to-day variability) was “slight increase (worsening)” and the “reduction in LA/Ao ratio from baseline” value ([2]; Shelby, velagliflozin 0.05 mg/kg bodyweight oral once daily) was “had not shown a reduction”. For the same compound, the “survival at the time of the interim analysis” value ([2]; all three dogs, D94) was “still alive”, the “blood glucose, renal function, or serum electrolytes” value ([2]; any time in any animal) was “no changes” and the observations following dosing ([2]; attributed to oral administration of a liquid product) was “Lip smacking/licking, head shaking, grimacing, and salivating”. The “most frequent abnormal observation following initiation of treatment” value ([2]; group housed dogs, relationship to test product unknown, one instance also at baseline) was “vomit found within the housing pen”, the “changes in cTnI” value ([2]; three Beagle dogs, velagliflozin 0.05 mg/kg bodyweight oral once daily) was “do not appear to be showing a clinically significant trend” and the “hematology, biochemistry, or erythropoietin parameters” value ([2]; three Beagle dogs, velagliflozin 0.05 mg/kg bodyweight oral once daily, Days 32, 59, 91) was “No clinically significant changes”. The glucosuria ([2]; three dogs, pharmacodynamic effectiveness) was “noted in all three dogs”, the “development of congestive heart failure (CHF)” value ([2]; three dogs, until D94, velagliflozin 0.05 mg/kg bodyweight once daily only) was “None of the study dogs developed congestive heart failure” and the overall disease state ([2]; three dogs, until interim analysis at D94) was “stable disease states with signs of improvement”.

Reference: US20240398845A1, “USE OF SGLT-2 INHIBITORS FOR THE PREVENTION AND/OR TREATMENT OF CARDIAC DISEASES IN NON-HUMAN MAMMALS EXCLUDING FELINES, IN PARTICULAR CANINES” (BOEHRINGER INGELHEIM VETMEDICA GMBH, priority 2021, published 2024)
